Results published in patent publication US20220177561A1, “Models and Methods Useful for the Treatment of Serrated Colorectal Cancer” (Sanford Burnham Prebys Medical Discovery Institute, priority 2018, published 2022).

How the values were obtained:
ZKO organoids = assay: Interferon response of PKCζ-deficient (ZKO) small intestine organoids (3D culture); format: cell-based, mouse; conditions: 3 μM for 24 hours then drug-free culture, qRT-PCR
Procedure: (§1) For generation of small intestine organoids, organoids were collected in ice-cold TrypLE solution (e.g., Life Technologies) to remove Matrigel, then pipetted 5 cycles and incubated 5 min at 37° C. to obtain single-cell suspension. Cells were washed twice in PBS 3% FBS and resuspended at room temperature with PBS with 100 μg/ml DNase I for 10 min before staining with anti-H-2Kb (clone AF6-88.5.5.3; eBioscience). For antigen presentation in MODE-K cells, cells were washed in PBS, trypsinized and wash with warm medium. Then, cells were resuspended and stained with anti-H-2Kk (clone 36-7-5; BioLegend) and anti-H-2Dk (clone 15-5-5; BD Pharmingen). Dead cells were excluded after 7-AAD staining. All flow cytometry experiments were performed on a BD LSRFortessa 14-colors analyzer at the Sanford Burnham Prebys Medical Discovery Institute Shared FACS Facility and flow cytometry data were analyzed using FlowJo software (Tree Star Inc.).
(§2) Intestinal epithelial cell (IEC) isolation was performed as described previously Llado et al., Repression of Intestinal Stem Cell Function and Tumorigenesis through Direct Phosphorylation of β-catenin and Yap by PKCζ. Cell Reports (2015) 10, 740-754, with some modification. […] Adenoma fragments were counted after isolation and a total of 250-500 fragments were mixed with 100 μl of growth factor reduced-Matrigel and plated in 12- or 24-well plates. […]

WT organoids = assay: Interferon response of WT small intestine organoids (3D culture); format: cell-based, mouse
Procedure: as §1, §2

[1] = system: serrated tumors of DKO^IEC mice; assay: TGF-βR1-specific inhibition experiment in DKO^IEC mice; format: in vivo, mouse
Procedure: For CD8+ T cell depletion (FIG. 4), 10-week-old LKO^IEC mice were injected intraperitoneally with 200 μg of anti-CD8 antibody (clone 2.43) or control IgG twice a week for 5 weeks until they were sacrificed. For the TGF-βR1-specific inhibition experiment, 10-week-old DKO^IEC mice were treated twice a day with a dose of 10 mg of galunisertib (Tauriello et al., 2018) per os for 6 weeks until they were sacrificed. Control mice were treated with vehicle. For checkpoint immunotherapy, either 10-week-old or 13-week-old DKO^IEC mice were injected intraperitoneally with a dose of 10 mg/kg (body mass) of anti-PD-L1 antibody (clone 6E11) twice a week for 3 weeks until they were sacrificed. For the combination therapy of anti-PD-L1 antibody and TGF-βR1-specific inhibitor, 23-week-old DKO^IEC mice were treated twice a day with a dose of 10 mg of galunisertib per os and injected intraperitoneally with a dose of 10 mg/kg (body mass) of anti-PD-L1 antibody twice a week for 3 weeks until they were sacrificed. Anti-PD-L1 antibody was provided by de Sauvage FJ (Genentech).
Organs were isolated, rinsed in ice-cold PBS, fixed in 10% neutral buffered formalin overnight at 4° C., dehydrated, and embedded in paraffin. Sections (5 μm) were stained with hematoxylin and eosin (H&E). For immunohistochemistry, sections were deparaffinized, rehydrated, and then treated for antigen retrieval. After blocking in Protein Block Serum-Free solutions (DAKO), tissues were incubated with primary antibody overnight at 4° C. followed by incubation with biotinylated secondary antibody. Endogenous peroxidase was quenched in 3% H2O2 in water for 10 min at room temperature. Antibodies were visualized with avidin/biotin complex (e.g., Vectastain Elite; Vector Laboratories) using diaminobenzidine as the chromagen. For immunofluorescence, fresh frozen organs were embedded in Tissue-Tek OCT compound (e.g., Sakura) and section of 10 μm were fixed in methanol, washed with PBS and then incubated with the primary antibodies. Washed sections were incubated with Alexa-conjugated secondary antibodies (e.g., Life Technologies) and examined with a Zeiss LSM 710 NLO Confocal Microscope. In situ hybridization for murine Ereg was carried out using RNAscope Multiplex Fluorescent Assay kit (Advanced Cell Diagnostics) following manufacturer's instructions. The probe corresponding to CDS region of murine Ereg (Accession #: NM_007950.2, probe region: 116-1496; Advanced Cell Diagnostics; Cat #: 437981). Cell death was analyzed using the In-Situ Cell Death Detection kit, TMR red (Thermo) for TUNEL. Masson's Trichrome staining was carried out following manufacturer's instructions (Sigma HT15-1KT).
Flow cytometry experiments were performed using fresh small intestinal tissue and organoid preparations. For the analyses of small intestinal tissue, a half part of duodenum, jejunum, and ileum was used for quantitative flow cytometry analysis of immune cell population of lamina propria. Briefly, small intestines were rinsed in cold PBS, minced into small pieces, incubated in HBSS with EDTA (5 mM) and digested with collagenase (0.05 mg/ml) for 30 min at 37° C., followed by a discontinuous Percoll separation method (40 and 75%) to purify immune cells. The cells concentrated at the interface were collected and washed in cold PBS. Red blood cells were removed with lysing buffer (BD Pharm Lyse) and live cells were counted using Trypan blue and then saturated with mouse Fc Block (purified anti-mouse CD16/CD32; 1:50; clone 2.4G2; BD Pharmingen) 30 min at 4° C. before incubating with specific dyed antibodies.
Total RNA from mouse tissues and cultured organoids was extracted using the TRIZOL reagent (e.g., Invitrogen) and the RNeasy Mini Kit (e.g., Qiagen), followed by DNase treatment. […]

[2] = 10-week-old DKO^IEC mice, 10 mg per os twice a day for 6 weeks
[3] = 10-week-old DKO^IEC mice, 6 weeks

Compound | expression of interferon-responsive genes Irf7, Oas1a, Isg15, and Cxcl10 (ZKO organoids) | expression of interferon-responsive genes Irf7, Oas1a, Isg15, and Cxcl10 (WT organoids; 3 μM for 24 hours then drug-free culture, qRT-PCR) | MHC class I long-chain H-2K^b on the surface (WT organoids; flow cytometry) | tumor load [1, 2] | tumor number [1, 2] | tumor size [1, 2] | incidence of invasive cancer [1, 3] | progression of SSA/P to the adenocarcinoma stage [1, 3] | proportion of PD-L1^+/CD45^+ cells infiltrating DKO^IEC tumors ([1]; CD45/PD-L1 staining) | collagen deposition ([1]; Masson's trichrome staining of small intestinal tumors) | proportion of Th17 cells in the tumors ([1]; flow cytometry) | proportion of CD8^+ T cells ([1]; flow cytometry, DKO^IEC tumors) | proportion of CD11b^+ myeloid cells ([1]; flow cytometry, DKO^IEC tumors) | proportion of Treg cells ([1]; flow cytometry, DKO^IEC tumors) | expression of TGF-β-responsive genes, such as Angpt12, Cdkn2b, Il11, and Ereg ([1]; qRT-PCR) | stromal phospho-SMAD2 ([1]; staining of small intestinal tumors)
Nc1ncn([C@H]2C[C@H](O)[C@@H](CO)O2)c(=O)n1 [5-AZA-CdR, 5-aza-2-deoxycytidine] | severely abrogated | robustly induced | upregulated |  |  |  |  |  |  |  |  |  |  |  |  | 
Cc1cccc(-c2nn3c(c2-c2ccnc4ccc(C(N)=O)cc24)CCC3)n1 [galunisertib] |  |  |  | did not reduce | did not reduce | did not reduce | especially reduced | suppressed | not affected | inhibition | reduction | did not significantly change | did not significantly change | did not significantly change | reduced expression | inhibition
